The source made the active and inactive calls.
Experiments:
[1] = system: H4; test: Luminescence Cell-Based Dose Response HTS to Identify Activators of 5'UTR Stem-Loop Driven Prion Protein mRNA Translation in H4 Neuroglioblastoma Cells. [Related pubchem assays: 1829 (Project Summary), 1814 (Primary HTS)]; format: functional; conditions: Homo sapiens
[2] = Luminescence Cell-Based Dose Response HTS to Identify Activators of Luciferase Translation or Activity in H4 […] Cells. [Related pubchem assays: 1829 (Project Summary), 1814 (Primary HTS)]; format: functional
[3] = Luminescence Cell-Based Dose Confirmation HTS to Identify Activators of 5'UTR Stem-Loop Driven Alpha-Synuclein mRNA Translation in H4 Neuroglioblastoma Cells. [Related pubchem assays: 1829 (Project Summary), 1814 (Primary HTS)]; format: functional
[4] = biological target: Nonstructural protein 1 (Influenza A virus, UniProt Q194T2); format: functional, Influenza A virus (A/California/07/2009(H1N1))
Chain of Nonstructural protein 1 (Q194T2 whole entry): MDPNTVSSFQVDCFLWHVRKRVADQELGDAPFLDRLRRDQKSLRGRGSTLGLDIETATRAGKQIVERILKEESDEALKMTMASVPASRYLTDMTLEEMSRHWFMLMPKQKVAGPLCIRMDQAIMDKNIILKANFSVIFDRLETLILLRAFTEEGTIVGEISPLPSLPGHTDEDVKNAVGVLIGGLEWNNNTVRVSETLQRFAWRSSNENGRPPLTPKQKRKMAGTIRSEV

[5] = cytotoxicity in HEK-293T cells, dose response, cytotoxicity control for TCR NF-kB inhibitor project, luminescence, T-cell screen hits (AID 489026); format: functional, cell-based;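 also: cells exposed to compound about 14 hours before the viability readout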
[6] = biological target: T1, Aminopeptidase N (Plasmodium falciparum FcB1/Columbia, UniProt O96935); test: P. falciparum M1AAP inhibitors, biochemical, fluorogenic H-Leu-NHMec substrate, 1536-well (AID 1445); set-up: species or system Plasmodium falciparum 3D7, 3D7
T1 sequence (O96935 whole entry): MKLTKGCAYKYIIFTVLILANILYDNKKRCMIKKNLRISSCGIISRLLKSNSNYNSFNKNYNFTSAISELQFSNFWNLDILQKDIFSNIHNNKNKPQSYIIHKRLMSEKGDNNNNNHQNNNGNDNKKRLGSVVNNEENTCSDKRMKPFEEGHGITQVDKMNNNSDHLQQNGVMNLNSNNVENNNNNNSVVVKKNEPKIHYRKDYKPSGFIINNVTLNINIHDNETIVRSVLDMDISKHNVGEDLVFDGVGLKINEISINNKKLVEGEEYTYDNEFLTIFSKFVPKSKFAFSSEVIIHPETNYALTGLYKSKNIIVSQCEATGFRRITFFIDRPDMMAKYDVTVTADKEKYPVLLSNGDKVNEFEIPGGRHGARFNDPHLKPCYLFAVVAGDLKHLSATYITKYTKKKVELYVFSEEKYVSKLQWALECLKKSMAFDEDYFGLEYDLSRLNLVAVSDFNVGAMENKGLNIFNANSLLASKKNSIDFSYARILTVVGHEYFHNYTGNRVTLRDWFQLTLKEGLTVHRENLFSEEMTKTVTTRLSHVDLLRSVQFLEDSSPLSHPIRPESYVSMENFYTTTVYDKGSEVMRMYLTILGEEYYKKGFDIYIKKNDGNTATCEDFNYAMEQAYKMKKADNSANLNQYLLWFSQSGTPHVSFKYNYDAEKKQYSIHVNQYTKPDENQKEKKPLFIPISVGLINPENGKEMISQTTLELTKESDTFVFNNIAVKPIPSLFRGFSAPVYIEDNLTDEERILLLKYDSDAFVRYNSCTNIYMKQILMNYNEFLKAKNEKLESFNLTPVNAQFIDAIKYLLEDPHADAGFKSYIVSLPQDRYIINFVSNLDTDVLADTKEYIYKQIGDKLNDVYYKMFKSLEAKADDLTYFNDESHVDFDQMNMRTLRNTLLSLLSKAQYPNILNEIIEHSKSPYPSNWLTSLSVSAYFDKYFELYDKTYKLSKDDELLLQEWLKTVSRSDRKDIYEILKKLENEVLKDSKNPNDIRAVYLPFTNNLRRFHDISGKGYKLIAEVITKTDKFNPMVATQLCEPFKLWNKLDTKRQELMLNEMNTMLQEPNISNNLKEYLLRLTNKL

[7] = biological target: T2, High affinity choline transporter 1 (Homo sapiens, UniProt Q9GZV3); test: CHT inhibitors, dose response, cell-based, 5-point CRC, membrane potential dye (AID 504840); format: functional
T2 sequence (Q9GZV3 whole entry): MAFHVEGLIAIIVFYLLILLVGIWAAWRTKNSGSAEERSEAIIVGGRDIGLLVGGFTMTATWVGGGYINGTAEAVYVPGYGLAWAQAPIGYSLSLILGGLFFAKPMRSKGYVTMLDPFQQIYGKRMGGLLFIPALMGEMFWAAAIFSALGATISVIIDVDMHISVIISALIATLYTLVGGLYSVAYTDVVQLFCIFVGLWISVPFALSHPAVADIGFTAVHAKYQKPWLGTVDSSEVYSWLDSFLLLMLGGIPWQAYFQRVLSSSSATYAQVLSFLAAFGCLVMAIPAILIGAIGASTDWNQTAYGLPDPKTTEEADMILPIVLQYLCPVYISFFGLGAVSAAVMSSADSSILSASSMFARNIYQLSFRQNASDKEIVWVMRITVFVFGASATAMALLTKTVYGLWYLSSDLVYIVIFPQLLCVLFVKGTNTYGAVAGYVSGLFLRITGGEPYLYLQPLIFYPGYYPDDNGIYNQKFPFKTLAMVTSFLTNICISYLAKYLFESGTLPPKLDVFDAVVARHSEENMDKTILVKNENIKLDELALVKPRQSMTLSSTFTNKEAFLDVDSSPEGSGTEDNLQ

[8] = biological target: T3, Zinc finger protein mex-5 (Caenorhabditis elegans, UniProt Q9XUB2); test: MEX-5/TCR-2 RNA interaction inhibitors, dose response, biochemical, C. elegans, fluorescence polarization (AID 1960)
T3 sequence (Q9XUB2 whole entry): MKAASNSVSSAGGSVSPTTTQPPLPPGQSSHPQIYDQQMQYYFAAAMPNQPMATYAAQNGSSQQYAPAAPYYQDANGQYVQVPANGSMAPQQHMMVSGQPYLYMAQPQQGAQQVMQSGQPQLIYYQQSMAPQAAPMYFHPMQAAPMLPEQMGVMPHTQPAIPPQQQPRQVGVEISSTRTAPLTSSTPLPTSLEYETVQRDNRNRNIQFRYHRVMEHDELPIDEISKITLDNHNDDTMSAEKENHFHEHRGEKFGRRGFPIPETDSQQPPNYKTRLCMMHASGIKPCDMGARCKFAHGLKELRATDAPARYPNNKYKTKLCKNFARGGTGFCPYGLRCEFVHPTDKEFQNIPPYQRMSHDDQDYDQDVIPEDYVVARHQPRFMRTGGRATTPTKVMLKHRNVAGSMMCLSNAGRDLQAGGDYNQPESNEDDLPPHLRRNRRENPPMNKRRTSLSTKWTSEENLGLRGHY

[9] = biological target: T4, RNA-binding protein pos-1 (Caenorhabditis elegans, UniProt G5EF15); test: inhibitors of POS-1/mex-3 RNA binding, dose response, biochemical, fluorescence polarization (AID 1964);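 also: purified POS-1 fused to maltose binding protein made in E. coli; potency of compounds blocking POS-1 binding to fluorescent RNA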
T4 sequence (G5EF15 whole entry): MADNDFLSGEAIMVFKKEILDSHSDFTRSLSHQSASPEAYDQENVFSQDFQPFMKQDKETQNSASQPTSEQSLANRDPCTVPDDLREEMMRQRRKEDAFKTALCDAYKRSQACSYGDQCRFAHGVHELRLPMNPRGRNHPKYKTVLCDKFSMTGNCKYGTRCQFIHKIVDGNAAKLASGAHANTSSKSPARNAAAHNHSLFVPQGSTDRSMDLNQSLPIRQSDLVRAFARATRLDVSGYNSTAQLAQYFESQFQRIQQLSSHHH

[10] = A Cell Based Secondary Assay To Explore Cytotoxicity of Compounds that Sensitize Mycobacterium Tuberculosis to Beta-Lactam Antibiotics.; format: functional
[11] = biological target: Glucose-6-phosphate 1-dehydrogenase (Homo sapiens, UniProt P11413); test: human G6PD enzyme inhibitors, dose response, selectivity assay for P. falciparum G6PD inhibitor project, biochemical, fluorescence (AID 504792); format: functional
Chain of Glucose-6-phosphate 1-dehydrogenase (P11413 whole entry): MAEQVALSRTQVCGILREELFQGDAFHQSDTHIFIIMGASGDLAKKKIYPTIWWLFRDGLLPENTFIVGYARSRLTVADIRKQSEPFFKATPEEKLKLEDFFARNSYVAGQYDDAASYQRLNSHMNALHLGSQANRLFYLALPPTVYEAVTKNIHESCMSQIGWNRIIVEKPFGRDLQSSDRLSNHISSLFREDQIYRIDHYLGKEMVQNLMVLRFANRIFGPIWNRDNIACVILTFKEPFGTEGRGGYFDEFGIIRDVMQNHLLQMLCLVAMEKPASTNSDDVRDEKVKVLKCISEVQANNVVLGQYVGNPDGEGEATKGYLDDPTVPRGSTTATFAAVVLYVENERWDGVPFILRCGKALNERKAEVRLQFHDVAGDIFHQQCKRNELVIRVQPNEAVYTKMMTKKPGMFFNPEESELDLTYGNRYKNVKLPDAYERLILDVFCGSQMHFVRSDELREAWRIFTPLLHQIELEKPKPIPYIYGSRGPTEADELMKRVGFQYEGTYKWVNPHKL

[12] = growth suppression of PTEN-null colon cells, dose response, cell-based, HCT116 PTEN knockout (AID 1047); format: functional;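 also: HCT116 colon tumor cells with PTEN knocked out; cells exposed to compound for 60 hours before readout; potency for loss of cell viability measured by luminescence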
[13] = growth suppression of beta-catenin-knockout colon cells, dose response, cell-based, HCT116, human colon tumor (AID 1045); format: functional;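 also: HCT116 colon tumor cells with beta catenin knocked out; cells exposed to compound for 60 hours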
[14] = biological target: Induced myeloid leukemia cell differentiation protein Mcl-1 (Homo sapiens, UniProt Q07820); format: functional
Chain of Induced myeloid leukemia cell differentiation protein Mcl-1 (Q07820 whole entry): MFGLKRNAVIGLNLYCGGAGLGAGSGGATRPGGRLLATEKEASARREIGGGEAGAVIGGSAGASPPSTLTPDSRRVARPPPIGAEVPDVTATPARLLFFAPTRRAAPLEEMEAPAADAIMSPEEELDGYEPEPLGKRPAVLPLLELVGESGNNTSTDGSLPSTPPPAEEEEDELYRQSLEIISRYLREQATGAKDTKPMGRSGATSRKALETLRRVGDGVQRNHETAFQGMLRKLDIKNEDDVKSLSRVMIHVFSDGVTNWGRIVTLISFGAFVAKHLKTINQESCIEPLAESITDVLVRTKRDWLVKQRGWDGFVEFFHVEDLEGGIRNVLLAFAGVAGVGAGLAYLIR

[15] = cells; format: functional
[16] = biological target: T5, Microphthalmia-associated transcription factor (Homo sapiens, UniProt O75030); test: TRPM1 promoter luciferase signal decrease, dose response, MITF inhibitor project, cell-based, SK-MEL-5, cherry-picked, set 3 (AID 493073); format: functional
T5 sequence (O75030 whole entry): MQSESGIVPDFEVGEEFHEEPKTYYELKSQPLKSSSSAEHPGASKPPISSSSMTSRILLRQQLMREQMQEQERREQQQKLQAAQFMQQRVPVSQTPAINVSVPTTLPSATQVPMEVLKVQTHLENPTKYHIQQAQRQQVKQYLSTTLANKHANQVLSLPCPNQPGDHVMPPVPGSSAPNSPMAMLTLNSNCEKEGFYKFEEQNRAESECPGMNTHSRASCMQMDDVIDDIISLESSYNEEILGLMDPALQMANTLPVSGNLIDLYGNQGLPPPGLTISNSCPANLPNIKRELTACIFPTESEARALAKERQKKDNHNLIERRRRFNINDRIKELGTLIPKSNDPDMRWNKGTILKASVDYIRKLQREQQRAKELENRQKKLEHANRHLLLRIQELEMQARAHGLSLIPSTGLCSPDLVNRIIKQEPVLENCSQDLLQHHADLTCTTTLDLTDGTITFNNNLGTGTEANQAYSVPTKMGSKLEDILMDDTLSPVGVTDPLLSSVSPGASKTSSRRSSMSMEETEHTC

[17] = biological target: T6, Heat shock factor protein 1 (Mus musculus, UniProt P38532); test: inhibition of MG132-induced HSE-luciferase signal, confirmation, cell-based, NIH3T3, luminescence, dose retest (AID 2382); format: functional;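 also: NIH3T3 fibroblasts with HSF1-driven luciferase reporter stressed by proteasome inhibitor MG132; luminescence from HSF1-driven luciferase expression after 8 hours of MG132 stress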
T6 sequence (P38532 whole entry): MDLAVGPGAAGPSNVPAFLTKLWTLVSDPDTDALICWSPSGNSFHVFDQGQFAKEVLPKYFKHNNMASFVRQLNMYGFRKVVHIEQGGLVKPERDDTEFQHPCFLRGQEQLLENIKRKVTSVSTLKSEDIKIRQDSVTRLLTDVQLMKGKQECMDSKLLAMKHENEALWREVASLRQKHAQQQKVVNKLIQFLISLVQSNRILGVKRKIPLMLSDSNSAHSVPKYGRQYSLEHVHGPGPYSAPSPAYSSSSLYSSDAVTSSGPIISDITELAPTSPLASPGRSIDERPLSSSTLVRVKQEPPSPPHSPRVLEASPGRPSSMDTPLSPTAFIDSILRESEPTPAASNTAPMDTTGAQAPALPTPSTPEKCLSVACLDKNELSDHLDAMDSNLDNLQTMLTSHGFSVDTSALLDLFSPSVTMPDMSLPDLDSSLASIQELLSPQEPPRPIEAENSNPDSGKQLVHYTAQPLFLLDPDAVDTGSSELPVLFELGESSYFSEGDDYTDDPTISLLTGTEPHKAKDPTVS

[18] = biological target: T7, Long-chain-fatty-acid--AMP ligase FadD28 (Mycobacterium tuberculosis, UniProt P9WQ59); test: Fluorescence polarization aasay to screen for inhibitors that compete for the binding of FadD28 to a bisubstrate Measured in Biochemical System Using Plate Reader - 2147-01_Inhibitor_Dose_CherryPick_Activity.; format: functional, Mycobacterium tuberculosis H37Rv
T7 sequence (P9WQ59 whole entry): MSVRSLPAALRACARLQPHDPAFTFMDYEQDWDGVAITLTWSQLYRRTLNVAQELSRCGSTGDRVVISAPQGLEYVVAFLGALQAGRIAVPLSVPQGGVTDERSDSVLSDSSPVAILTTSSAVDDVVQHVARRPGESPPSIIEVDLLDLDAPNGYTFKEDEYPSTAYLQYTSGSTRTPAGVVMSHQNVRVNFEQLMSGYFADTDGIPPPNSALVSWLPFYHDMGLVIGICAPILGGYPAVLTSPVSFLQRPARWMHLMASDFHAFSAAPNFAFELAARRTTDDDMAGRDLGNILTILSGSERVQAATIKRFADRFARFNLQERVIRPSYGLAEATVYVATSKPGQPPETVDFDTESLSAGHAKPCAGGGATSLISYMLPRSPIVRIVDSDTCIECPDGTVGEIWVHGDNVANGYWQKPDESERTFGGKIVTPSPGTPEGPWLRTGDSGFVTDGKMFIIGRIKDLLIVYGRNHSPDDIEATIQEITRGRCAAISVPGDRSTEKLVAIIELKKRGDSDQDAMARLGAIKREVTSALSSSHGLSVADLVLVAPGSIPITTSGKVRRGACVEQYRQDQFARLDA

Structure (SMILES): CCCN1C(=O)/C(=C2\SC(N3CCCCC3)=NC2=O)c2ccccc21
- EC50 [1]: > 120 µM (not active)
- EC50 [2]: 64.2 µM (active)
- EC50 [3]: 15.2 µM (active)
- IC50 [4]: 28.5 µM (active)

Structure (SMILES): COc1cc(-c2noc(C)c2-c2ccc3[nH]ccc3c2)cc(OC)c1OC
- IC50 [5]: 32.5 µM (inactive)

Structure (SMILES): CCCC(C)C1(CC)C(=O)N=C(Nc2ccccc2OC)NC1=O (stereo unspecified)
- IC50 [6]: 52.1 µM (active)

Structure (SMILES): COc1ccc(/C=C2\SC(=S)N(C(C(=O)O)c3ccccc3)C2=O)c(OC)c1 (stereo unspecified)
- IC50 [6]: 21.9 µM (active)

Structure (SMILES): CCn1c(SCc2nc(-c3ccc(Cl)cc3)no2)nnc1-c1ccco1
- IC50 [7]: 15.2 µM (active)

Structure (SMILES): CN(C)CCCN(C(=O)/C=C/c1cccs1)c1nc2ccc(F)cc2s1
- EC50 [8]: > 300 µM (not active)
- EC50 [9]: > 300 µM (not active)
- CC50 [10]: 12.4 µM (active)

Structure (SMILES): COCc1cc(O)n2nc(C(C)(C)C)cc2n1
- IC50 [11]: > 80 µM (inactive)

Structure (SMILES): O=C(Nc1ccc2oc(-c3ccc(Cl)c(Cl)c3)nc2c1)c1nc[nH]n1
- EC50 [12]: 3.34 µM (active)
- CC50 [10]: 16.4 µM (active)
- EC50 [13]: 4.31 µM (active)

Structure (SMILES): Cc1ccc(N2C(=O)/C(=C\NNc3ccc(S(=O)(=O)N4CCOCC4)cc3[N+](=O)[O-])c3ccccc3C2=O)c(C)c1
- IC50 [14]: 1.8 µM (not active)
- IC50 [7]: 12.3 µM (active)
- IC50 [4]: 8.94 µM (active)

Structure (SMILES): O=C(Nc1nc2ccccc2n1CCN1CCCC1)C1CCCCC1
- IC50 [15]: 46.9 µM (active)
- CC50 [10]: > 40 µM (active)

Structure (SMILES): CC(C)c1ccc(/C=N/Nc2ccc(C(=O)O)cc2)cc1
- AC50 [16]: 3.53 µM (active)
- IC50 [5]: > 80 µM (inactive)
- EC50 [17]: < 0.16 µM (active)

Structure (SMILES): COc1cc(/C=N/NC(=O)C(Cc2c[nH]c3ccccc23)NC(=O)OCC(C)C)cc([N+](=O)[O-])c1O (stereo unspecified)
- IC50 [6]: 16.7 µM (active)
- AC50 [18]: 65.6 µM (active)

Structure (SMILES): CC/C(=C(/CC)c1ccc(O)cc1)c1ccc(O)cc1 [DIETHYLSTILBESTROL]
- IC50 [7]: 12.6 µM (active)

Reference: ChEMBL document CHEMBL1201862, “PubChem BioAssay data set” (2004)
